Assay results taken from ChEMBL document CHEMBL1667782, “Glucose-lowering activity of novel tetrasaccharide glyceroglycolipids from the fruits of Cucurbita moschata” (2011).

Experiments:
Assay type in all cases: functional
Conditions in all cases: route intraperitoneal
Mus musculus [1] = test: Antidiabetic activity in streptozotocin-induced C57/BL6J mouse diabetic model assessed as serum glucose level at 50 mg/kg, ip after 14 days (reference value: 22.17 +/- 5.63 mmol/L)
Mus musculus [2] = test: Antidiabetic activity in streptozotocin-induced C57/BL6J mouse diabetic model assessed as serum glucose level at 50 mg/kg, ip after 21 days (reference value: 23.89 +/- 6.98 mmol/L)
Mus musculus [3] = test: Antidiabetic activity in streptozotocin-induced C57/BL6J mouse diabetic model assessed as serum glucose level at 50 mg/kg, ip after 28 days (reference value: 23.77 +/- 6.12 mmol/L)
Mus musculus [4] = test: Antidiabetic activity in streptozotocin-induced C57/BL6J mouse diabetic model assessed as serum glucose level at 50 mg/kg, ip after 7 days (reference value: 22.65 +/- 6.16 mmol/L)

SMILES | Activity (Mus musculus [1]) [mmol/L] | Activity (Mus musculus [2]) [mmol/L] | Activity (Mus musculus [3]) [mmol/L] | Activity (Mus musculus [4]) [mmol/L]
CC/C=C\C/C=C\C/C=C\CCCCCCCC(=O)OCC(O)CO[C@@H]1O[C@H](CO[C@@H]2O[C@H](CO[C@@H]3O[C@H](CO[C@@H]4O[C@H](CO)[C@H](O)[C@H](O)[C@H]4O)[C@H](O)[C@H](O)[C@H]3O)[C@H](O)[C@H](O)[C@H]2O)[C@H](O)[C@H](O)[C@H]1O (stereo partly drawn) | 18.27 | 16.36 | 14.61 | 20.89
CCCCC/C=C\C/C=C\CCCCCCCC(=O)OCC(O)CO[C@@H]1O[C@H](CO[C@@H]2O[C@H](CO[C@@H]3O[C@H](CO[C@@H]4O[C@H](CO)[C@H](O)[C@H](O)[C@H]4O)[C@H](O)[C@H](O)[C@H]3O)[C@H](O)[C@H](O)[C@H]2O)[C@H](O)[C@H](O)[C@H]1O (stereo partly drawn) | 19.09 | 18.17 | 15.73 | 21.47
